Data as given in patent publication US20260167623A1 (NIKANG THERAPEUTICS, INC., priority 2022, published 2026).

Molecular target: T1, CDK2 (Homo sapiens, UniProt P24941)
T1 construct: High-Throughput Measurement of Cellular Endogenous CDK2; endogenous in cells; host or cells: OVCAR3
Assay: Inhibition of CDK2: phospho-Rb (S807/811) HTRF measurement in OVCAR3 cells, 24 h
Format: cell-based
Conditions: 24 h compound treatment, read-out: pRB_OVCAR3_24h
In short: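 OVCAR3 cells, seeded overnight, were exposed to compounds at 0.3 to 10,000 nM for 24 h, then lysed. Rb S807/811 phosphorylation read by HTRF (665/620 nm ratio) after 4 h detection at room temperature; data normalized to DMSO and IC50 from four-parameter logistic fit.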

Cn1nc(N2CCC(=O)NC2=O)c2ccc(C3CCN(CC4CCN(c5cccc(S(=O)(=O)N6CCC(Nc7ncc(OC(F)F)cn7)CC6)c5)CC4)CC3)cc21 [Example 112, 1-(6-(1-((1-(3-((4-((5-(difluoromethoxy)-pyrimidin-2-yl)amino)piperidin-1-yl)sulfonyl)phenyl)piperidin-4-yl)methyl)piperidin-4-yl)-1-methyl-1H-indazol-3-yl)dihydropyrimidine-2,4(1H,3H)-dione]
IC50: 1 to 100 nM

O=C1CCN(c2ccc(N3CCN(CC4CCN(c5cccc(S(=O)(=O)N6CCC(Nc7ncc(C(F)(F)F)cn7)CC6)c5)CC4)CC3)cc2)C(=O)N1 [Example 113, 1-(4-(4-((1-(3-((4-((5-(trifluoromethyl)-pyrimidin-2-yl)amino)piperidin-1-yl)sulfonyl)phenyl)piperidin-4-yl)methyl)piperazin-1-yl)phenyl)-dihydropyrimidine-2,4(1H,3H)-dione]
IC50: 100 to 500 nM

Cn1nc(N2CCC(=O)NC2=O)c2ccc(N3CC4CCC(C3)N4CC3CCN(c4cccc(S(=O)(=O)N5CCC(Nc6ncc(Cl)cn6)CC5)c4)CC3)cc21 [Example 114, 1-(6-(8-((1-(3-((4-((5-chloropyrimidin-2-yl)amino)piperidin-1-yl)sulfonyl)phenyl)-piperidin-4-yl)methyl)-3,8-diaza-bicyclo[3.2.1]octan-3-yl)-1-methyl-1H-indazol-3-yl)dihydropyrimidine-2,4(1H,3H)-dione]
IC50: 100 to 500 nM

C[C@H]1CN(CC2CCN(c3cccc(S(=O)(=O)N4CCC(Nc5ncc(Cl)cn5)CC4)c3)CC2)CCN1c1ccc2c(N3CCC(=O)NC3=O)nn(C)c2c1 [Example 117, (S)-1-(6-(4-((1-(3-((4-((5-chloropyrimidin-2-yl)amino)piperidin-1-yl)sulfonyl)phenyl)-piperidin-4-yl)methyl)-2-methylpiperazin-1-yl)-1-methyl-1H-indazol-3-yl)dihydro-pyrimidine-2,4(1H,3H)-dione]
IC50: 100 to 500 nM

Cn1nc(N2CCC(=O)NC2=O)c2ccc(C3CN(CC4CCN(c5cccc(S(=O)(=O)N6CCC(Nc7ncc(C(F)(F)F)cn7)CC6)c5)CC4)C3)cc21 [Example 118, 1-(1-methyl-6-(1-((1-(3-((4-((5-(trifluoro-methyl)pyrimidin-2-yl)amino)piperidin-1-yl)sulfonyl)phenyl)piperidin-4-yl)methyl)-azetidin-3-yl)-1H-indazol-3-yl)dihydropyrimidine-2,4(1H,3H)-dione]
IC50: 1 to 100 nM

O=C1CCC(N2Cc3cc(C4CCN(CC5CCN(c6cccc(S(=O)(=O)N7CCC(Nc8ncc(Cl)cn8)CC7)c6)CC5)CC4)c(F)cc3C2=O)C(=O)N1 (stereo not drawn) [Example 120, 3-(5-(1-((1-(3-((4-((5-chloropyrimidin-2-yl)amino)piperidin-1-yl)sulfonyl)phenyl)-piperidin-4-yl)methyl)piperidin-4-yl)-6-fluoro-1-oxoisoindolin-2-yl)piperidine-2,6-dione]
IC50: 100 to 500 nM

Cn1c(=O)n(C2CCC(=O)NC2=O)c2cccc(C3CCN(CC4CCN(c5cccc(S(=O)(=O)N6CCC(Nc7ncc(OC(F)F)cn7)CC6)c5)CC4)CC3)c21 (stereo not drawn) [Example 121, 3-(4-(1-((1-(3-((4-((5-(difluoromethoxy)-pyrimidin-2-yl)amino)piperidin-1-yl)sulfonyl)phenyl)piperidin-4-yl)methyl)-piperidin-4-yl)-3-methyl-2-oxo-2,3-dihydro-1H-benzo[d]imidazol-1-yl)piperidine-2,6-dione]
IC50: 1 to 100 nM

Cn1nc(N2CCC(=O)NC2=O)c2ccc(C3CCN(Cc4ccc(-c5cccc(S(=O)(=O)N6CCC(Nc7ncc(Cl)cn7)CC6)c5)cc4)CC3)cc21 [Example 122]
IC50: 1 to 100 nM

Cn1nc(N2CCC(=O)NC2=O)c2ccc(C3CCN(CCOc4cccc(S(=O)(=O)N5CCC(Nc6ncc(C(F)(F)F)cn6)CC5)c4)CC3)cc21 [Example 123, 1-(1-methyl-6-(1-(2-(3-((4-((5-(trifluoro-methyl)pyrimidin-2-yl)amino)piperidin-1-yl)sulfonyl)phenoxy)ethyl)piperidin-4-yl)-1H-indazol-3-yl)dihydropyrimidine-2,4(1H,3H)-dione]
IC50: 1 to 100 nM

Cn1nc(N2CCC(=O)NC2=O)c2ccc(C3CCN(CCOc4cccc(S(=O)(=O)N5CCC(Nc6ncc(Cl)cn6)CC5)c4)CC3)cc21 [Example 124, 1-(6-(1-(2-(3-((4-((5-chloropyrimidin-2-yl)amino)piperidin-1-yl)sulfonyl)phenoxy)-ethyl)piperidin-4-yl)-1-methyl-1H-indazol-3-yl)dihydropyrimidine-2,4(1H,3H)-dione]
IC50: 1 to 100 nM

Cn1nc(N2CCC(=O)NC2=O)c2ccc(N3CC4CC(C3)N4CC3CCN(c4cccc(S(=O)(=O)N5CCC(Nc6ncc(Cl)cn6)CC5)c4)CC3)cc21 [Example 125, 1-(6-(6-((1-(3-((4-((5-chloropyrimidin-2-yl)amino)piperidin-1-yl)sulfonyl)phenyl)-piperidin-4-yl)methyl)-3,6-diazabicyclo-[3.1.1]heptan-3-yl)-1-methyl-1H-indazol-3-yl)dihydropyrimidine-2,4(1H,3H)-dione]
IC50: 500 to 2500 nM

Cn1nc(N2CCC(=O)NC2=O)c2ccc(N3CC4CC(C3)N4CC3CCN(c4cccc(S(=O)(=O)N5CCC(Nc6ncc(C(F)(F)F)cn6)CC5)c4)CC3)cc21 [Example 126, 1-(1-methyl-6-(6-((1-(3-((4-((5-(trifluoro-methyl)pyrimidin-2-yl)amino)piperidin-1-yl)sulfonyl)phenyl)piperidin-4-yl)methyl)-3,6-diazabicyclo[3.1.1]heptan-3-yl)-1H-indazol-3-yl)dihydropyrimidine-2,4(1H,3H)-dione]
IC50: 500 to 2500 nM

C[C@@H]1CN(CC2CCN(c3cccc(S(=O)(=O)N4CCC(Nc5ncc(Cl)cn5)CC4)c3)CC2)C[C@H](C)N1c1ccc2c(N3CCC(=O)NC3=O)nn(C)c2c1 [Example 127, 1-(6-((2S,6R)-4-((1-(3-((4-((5-chloro-pyrimidin-2-yl)amino)piperidin-1-yl)-sulfonyl)phenyl)piperidin-4-yl)methyl)-2,6-dimethylpiperazin-1-yl)-1-methyl-1H-indazol-3-yl)dihydropyrimidine-2,4(1H,3H)-dione]
IC50: 1 to 100 nM

Cn1c(=O)n(C2CCC(=O)NC2=O)c2cccc(C3CCN(Cc4cccc(S(=O)(=O)N5CCC(Nc6ncc(OC(F)F)cn6)CC5)c4)CC3)c21 (stereo not drawn) [Example 128, 3-(4-(1-(3-((4-((5-(difluoromethoxy)-pyrimidin-2-yl)amino)piperidin-1-yl)sulfonyl)benzyl)piperidin-4-yl)-3-methyl-2-oxo-2,3-dihydro-1H-benzo[d]imidazol-1-yl)piperidine-2,6-dione]
IC50: 1 to 100 nM

Cn1nc(N2CCC(=O)NC2=O)c2ccc(C3CCN(CC4CN(c5cccc(S(=O)(=O)N6CCC(Nc7ncc(Cl)cn7)CC6)c5)C4)CC3)cc21 [Example 129, 1-(6-(1-((1-(3-((4-((5-chloropyrimidin-2-yl)amino)piperidin-1-yl)sulfonyl)phenyl)-azetidin-3-yl)methyl)piperidin-4-yl)-1-methyl-1H-indazol-3-yl)dihydropyrimidine-2,4(1H,3H)-dione]
IC50: 1 to 100 nM

Cn1nc(N2CCC(=O)NC2=O)c2ccc(C3CCN(Cc4cncc(S(=O)(=O)N5CCC(Nc6ncc(C(F)(F)F)cn6)CC5)c4)CC3)cc21 [Example 130, 1-(1-methyl-6-(1-((5-((4-((5-(trifluoro-methyl)pyrimidin-2-yl)amino)piperidin-1-yl)sulfonyl)pyridin-3-yl)methyl)piperidin-4-yl)-1H-indazol-3-yl)dihydropyrimidine-2,4(1H,3H)-dione]
IC50: 1 to 100 nM

Cn1nc(N2CCC(=O)NC2=O)c2ccc(C3CCN(Cc4cnn(-c5cccc(S(=O)(=O)N6CCC(Nc7ncc(Cl)cn7)CC6)c5)c4)CC3)cc21 [Example 131, 1-(6-(1-((1-(3-((4-((5-chloropyrimidin-2-yl)amino)piperidin-1-yl)sulfonyl)phenyl)-1H-pyrazol-4-yl)methyl)piperidin-4-yl)-1-methyl-1H-indazol-3-yl)dihydropyrimidine-2,4(1H,3H)-dione]
IC50: 1 to 100 nM

Cn1nc(N2CCC(=O)NC2=O)c2ccc(C3CCN(CC4CC5(C4)CN(c4cccc(S(=O)(=O)N6CCC(Nc7ncc(Cl)cn7)CC6)c4)C5)CC3)cc21 [Example 132, 1-(6-(1-((2-(3-((4-((5-chloropyrimidin-2-yl)amino)piperidin-1-yl)sulfonyl)phenyl)-2-azaspiro[3.3]heptan-6-yl)methyl)piperidin-4-yl)-1-methyl-1H-indazol-3-yl)dihydropyrimidine-2,4(1H,3H)-dione]
IC50: 1 to 100 nM

O=C1CCC(Nc2ccc(N3CCN(CC4CCN(c5cccc(S(=O)(=O)N6CCC(Nc7ncc(C(F)(F)F)cn7)CC6)c5)CC4)CC3)cc2)C(=O)N1 (stereo not drawn) [Example 133, 3-((4-(4-((1-(3-((4-((5-(trifluoromethyl)-pyrimidin-2-yl)amino)piperidin-1-yl)sulfonyl)phenyl)piperidin-4-yl)methyl)piperazin-1-yl)phenyl)amino)-piperidine-2,6-dione]
IC50: 100 to 500 nM

Cn1nc(N2CCC(=O)NC2=O)c2ccc(C3=CCN(CC4CCN(c5cccc(S(=O)(=O)N6CCC(Nc7ncc(Cl)cn7)CC6)c5)CC4)CC3)cc21 [Example 134, 1-(6-(1-((1-(3-((4-((5-chloropyrimidin-2-yl)amino)piperidin-1-yl)sulfonyl)phenyl)-piperidin-4-yl)methyl)-1,2,3,6-tetrahydropyridin-4-yl)-1-methyl-1H-indazol-3-yl)dihydropyrimidine-2,4(1H,3H)-dione]
IC50: 100 to 500 nM

Cn1nc(N2CCC(=O)NC2=O)c2ccc(C3CCN(C[C@@H]4CCN(c5cccc(S(=O)(=O)N6CCC(Nc7ncc(Cl)cn7)CC6)c5)C4)CC3)cc21 [Example 135, (S)-1-(6-(1-((1-(3-((4-((5-chloropyrimidin-2-yl)amino)piperidin-1-yl)sulfonyl)phenyl)-pyrrolidin-3-yl)methyl)piperidin-4-yl)-1-methyl-1H-indazol-3-yl)dihydropyrimidine-2,4(1H,3H)-dione]
IC50: 100 to 500 nM
